Results reported in patent publication US20250368647A1, “NITROGEN CONTAINING CONDENSED 2,3-DIHYDROQUINAZOLINONE COMPOUNDS AS NAV1.8 INHIBITORS” (GLAXOSMITHKLINE INTELLECTUAL PROPERTY DEVELOPMENT LIMITED, priority 2022, published 2025).
Read-outs that look alike come from different tables or passages of the source. Values belong to the compound of their own block, whether it stands above or below them.

Columns and labels:
[1] = biological target: human Nav1.8 (Homo sapiens (Human), UniProt Q9Y5Y9); experiment: QPatch 48 HTX voltage-clamp electrophysiology, half inactivation state (V1/2) protocol, HEK293-Nav1.8 cells; format: cell-based; conditions: HEK293 cells expressing human Nav1.8, human Navβ1 and human TREK1, P2 current
human Nav1.8, sequence (Q9Y5Y9 whole entry): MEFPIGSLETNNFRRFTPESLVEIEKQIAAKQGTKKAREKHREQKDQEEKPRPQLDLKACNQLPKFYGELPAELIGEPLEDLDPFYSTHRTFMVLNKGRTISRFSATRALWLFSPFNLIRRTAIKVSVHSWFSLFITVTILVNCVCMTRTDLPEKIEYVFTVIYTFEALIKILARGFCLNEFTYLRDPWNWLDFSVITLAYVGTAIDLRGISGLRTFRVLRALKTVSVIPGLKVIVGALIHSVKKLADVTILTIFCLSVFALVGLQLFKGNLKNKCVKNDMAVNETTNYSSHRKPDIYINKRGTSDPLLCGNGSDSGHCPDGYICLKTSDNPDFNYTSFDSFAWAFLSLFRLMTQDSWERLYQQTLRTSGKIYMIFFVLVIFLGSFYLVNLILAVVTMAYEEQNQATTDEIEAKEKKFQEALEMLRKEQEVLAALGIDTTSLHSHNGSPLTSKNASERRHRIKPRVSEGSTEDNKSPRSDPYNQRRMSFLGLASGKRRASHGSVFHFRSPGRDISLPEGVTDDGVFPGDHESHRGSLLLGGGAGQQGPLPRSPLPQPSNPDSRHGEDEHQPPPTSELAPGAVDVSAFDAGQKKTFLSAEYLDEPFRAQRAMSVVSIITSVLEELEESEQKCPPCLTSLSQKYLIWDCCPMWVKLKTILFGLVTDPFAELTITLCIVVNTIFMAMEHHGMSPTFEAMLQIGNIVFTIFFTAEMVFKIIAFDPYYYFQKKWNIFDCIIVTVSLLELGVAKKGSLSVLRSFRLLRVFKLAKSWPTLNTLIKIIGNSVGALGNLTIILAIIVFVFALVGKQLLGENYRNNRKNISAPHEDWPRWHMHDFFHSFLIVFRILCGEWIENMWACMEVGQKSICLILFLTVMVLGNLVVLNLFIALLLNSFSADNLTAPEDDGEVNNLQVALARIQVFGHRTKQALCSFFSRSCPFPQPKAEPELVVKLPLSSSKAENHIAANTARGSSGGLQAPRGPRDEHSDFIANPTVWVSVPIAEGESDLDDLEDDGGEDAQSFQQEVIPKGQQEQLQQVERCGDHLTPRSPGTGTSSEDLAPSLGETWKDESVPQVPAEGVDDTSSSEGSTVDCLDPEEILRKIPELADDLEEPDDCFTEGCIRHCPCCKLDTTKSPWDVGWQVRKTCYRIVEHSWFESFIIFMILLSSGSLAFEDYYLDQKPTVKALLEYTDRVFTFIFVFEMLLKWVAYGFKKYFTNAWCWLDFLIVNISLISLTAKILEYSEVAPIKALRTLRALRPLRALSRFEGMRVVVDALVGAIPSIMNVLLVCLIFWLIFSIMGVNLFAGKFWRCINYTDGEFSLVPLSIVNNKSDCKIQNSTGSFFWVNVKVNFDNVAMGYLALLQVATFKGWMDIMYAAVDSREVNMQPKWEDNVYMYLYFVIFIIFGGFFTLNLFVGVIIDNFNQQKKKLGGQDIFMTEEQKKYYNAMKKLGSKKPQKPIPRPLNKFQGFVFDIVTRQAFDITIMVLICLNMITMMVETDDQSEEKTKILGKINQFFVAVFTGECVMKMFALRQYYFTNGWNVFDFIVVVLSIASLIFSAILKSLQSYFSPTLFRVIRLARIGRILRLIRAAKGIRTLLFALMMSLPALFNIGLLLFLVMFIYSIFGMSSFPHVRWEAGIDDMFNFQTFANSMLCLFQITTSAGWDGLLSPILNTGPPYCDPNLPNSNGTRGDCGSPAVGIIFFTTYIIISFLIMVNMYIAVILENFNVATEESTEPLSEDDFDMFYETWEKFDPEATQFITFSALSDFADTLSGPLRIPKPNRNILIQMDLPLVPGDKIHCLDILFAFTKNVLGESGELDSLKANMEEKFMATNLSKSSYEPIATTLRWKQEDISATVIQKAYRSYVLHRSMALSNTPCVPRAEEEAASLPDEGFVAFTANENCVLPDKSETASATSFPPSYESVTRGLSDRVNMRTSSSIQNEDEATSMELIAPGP
human Nav1.8, sequence (Q07699 19-218 partner): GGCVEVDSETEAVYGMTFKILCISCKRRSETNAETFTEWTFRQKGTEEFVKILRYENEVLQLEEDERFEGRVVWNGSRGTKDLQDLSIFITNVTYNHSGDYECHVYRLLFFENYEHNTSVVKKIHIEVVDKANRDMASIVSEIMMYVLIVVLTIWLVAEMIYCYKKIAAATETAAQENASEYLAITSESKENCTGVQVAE
Method in brief: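 HEK293 cells co-expressing Navβ1 and TREK1 were voltage-clamped from −100 mV: a 20 ms step to 0 mV, 8 s inactivation at −46 mV, 20 ms at −100 mV, then a 20 ms P2 test step to 0 mV, repeated every 15 s. P2 current was normalized to vehicle and full block, corrected for run-down, and Hill-fitted (4–6 concentrations) for IC50.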

Compound: COc1ccc2c(n1)N(C(=O)OC(C)(C)C)CCCc1cc(F)ccc1Nc1ccc(C(F)(F)F)cc1C(=O)N2
ring closure, isolated yield (from COc1ccc(N)c(N(CCCc2cc(F)ccc2Nc2ccc(C(F)(F)F)cc2C(=O)O)C(=O)OC(C)(C)C)n1, amide bond, 13-membered ring, PyOxim/DIEA, DMF, 95.4 mM, 2.0 h): 80%

Compound: COc1ccc(NC(=O)c2cc(Cl)c(F)cc2Br)c(N(CCCc2cc(F)ccc2N)C(=O)OC(C)(C)C)n1
ring closure, isolated yield (the molecule shown is the open-chain precursor, other bond, 13-membered ring, CuI/DIEA, DMF, 21.9 mM, 95.0 °C): 29%

Compound: COc1ccc2c(n1)CC=CCCc1cc(F)ccc1N1CN2C(=O)c2cc(C(F)(F)F)ccc21
ring closure, isolated yield (from C=CCCc1cc(F)ccc1N1CN(c2ccc(OC)nc2CC=C)C(=O)c2cc(C(F)(F)F)ccc21, rcm bond, 12-membered ring, Hoveyda-Grubbs II (20 mol%), DCE, 50.3 mM, 80.0 °C, 18.0 h): 67%

Compound: COc1ccc2c(n1)CC=CCc1cc(F)ccc1N1CN2C(=O)c2ccc(C(F)(F)F)cc21
ring closure, isolated yield (from C=CCc1cc(F)ccc1N1CN(c2ccc(OC)nc2CC=C)C(=O)c2ccc(C(F)(F)F)cc21, rcm bond, 11-membered ring, Hoveyda-Grubbs II (20 mol%), DCE, 8.6 mM, 80.0 °C, 16.0 h): 52%

Compound: COc1ccc2c(n1)C(C)(C)CN(C(=O)OC(C)(C)C)Cc1cc(F)ccc1Nc1cc(C(F)(F)F)c(F)cc1C(=O)N2
ring closure, isolated yield (from COC(=O)c1cc(F)c(C(F)(F)F)cc1Nc1ccc(F)cc1CN(CC(C)(C)c1nc(OC)ccc1N)C(=O)OC(C)(C)C, amide bond, 13-membered ring, LiHMDS, THF, 104.0 mM, 16.0 h): 46%

Compound: COc1ccc2c(n1)C=CCCc1cc(F)ccc1N1CN2C(=O)c2cc(C(F)(F)F)ncc21
ring closure, isolated yield (from C=CCCc1cc(F)ccc1N1CN(c2ccc(OC)nc2/C=C\C)C(=O)c2cc(C(F)(F)F)ncc21, rcm bond, 11-membered ring, Hoveyda-Grubbs II, DCE, 80.0 °C, 18.5 h): 3%

Compound: COc1ccc2c(n1)C=CCc1cc(F)ccc1N1CN2C(=O)c2cc(C(F)(F)F)ccc21
ring closure, isolated yield (from C=CCc1cc(F)ccc1N1CN(c2ccc(OC)nc2C=C)C(=O)c2cc(C(F)(F)F)ccc21, rcm bond, 10-membered ring, Hoveyda-Grubbs II (20 mol%), DCE, 1.38 mM, 80.0 °C, 4.0 h): 72%

Compound: COc1ccc2c(n1)CC=CCc1cc(F)ccc1N1CN2C(=O)c2cc(C(F)(F)F)ccc21
ring closure, isolated yield (from C=CCc1cc(F)ccc1N1CN(c2ccc(OC)nc2CC=C)C(=O)c2cc(C(F)(F)F)ccc21, rcm bond, 11-membered ring, Hoveyda-Grubbs II (20 mol%), DCE, 8.6 mM, 80.0 °C, 16.0 h): 68%

Compound: 3^4-fluoro-1^6-methoxy-2^7-(trifluoromethyl)-2^1,2^2,2^3,2^4-tetrahydro-4-oxa-2(3,1)-quinazolina-1(3,2)-pyridina-3(1,2)-benzenacyclo octaphane-6-en-2^4-one
ring closure, isolated yield (rcm bond, 12-membered ring, Hoveyda-Grubbs M722 (Grubbs C711), 80.0 °C): 7%

Compound: COc1ccc2c(n1)CCC=CCc1cc(F)ccc1N1CN2C(=O)c2cc(Cl)cnc21
ring closure, isolated yield (from C=CCCc1nc(OC)ccc1N1CN(c2ccc(F)cc2CC=C)c2ncc(Cl)cc2C1=O, rcm bond, 12-membered ring, Hoveyda-Grubbs II, DCE, 80.0 °C, 1.0 h): 51%

Compound: COc1ccc2c(n1)NCCCCc1cc(F)ccc1N1CN2C(=O)c2cc(C(F)(F)F)ccc21
ring closure, isolated yield (from COc1ccc(N2CN(c3ccc(F)cc3CCCCN)c3ccc(C(F)(F)F)cc3C2=O)c(Br)n1, cn_pd bond, 12-membered ring, Pd2(dba)3/BINAP/NaOtBu, toluene, 71.0 mM, 90.0 °C, 3.0 h): 40%

Compound: COc1ccc2c(n1)N(C(=O)OC(C)(C)C)CCCc1c(ccc(F)c1F)Nc1cc(C(F)(F)F)c(F)cc1C(=O)N2
ring closure, isolated yield (from COc1ccc(N)c(N(CCCc2c(Nc3cc(C(F)(F)F)c(F)cc3C(=O)O)ccc(F)c2F)C(=O)OC(C)(C)C)n1, amide bond, 13-membered ring, PyOxim/DIEA, DMF, 129.0 mM, 24.0 h): 72%

Compound: O=C1c2cc(C(F)(F)F)ccc2N2CN1c1ccncc1CC=CCCc1cc(F)ccc12
ring closure, isolated yield (from C=CCCc1cc(F)ccc1N1CN(c2ccncc2CC=C)C(=O)c2cc(C(F)(F)F)ccc21, rcm bond, 12-membered ring, Greencat-iPr, DCE, 80.0 °C, 4.0 h): 40%

IC50 ([1]; read-out: Nav1.8, pIC50 (converted)): 39.8 nM
Compound: C[C@@H]1CCNc2[nH]c(=O)ccc2N2CN(c3cc(C(F)(F)F)c(F)cc3C2=O)c2ccc(F)c(F)c21 [Example 133, (10R)-2,8,9-trifluoro-10-methyl-3-(trifluoromethyl)-10,11,12,13-tetrahydro-19H-5,18-methanodibenzo[f,i]pyrido[2,3-b][1,4,8]triazacyclotridecine-15,19(14H)-dione]

Nav1.8, pIC50 [1]: 6.4
Compound: O=C1c2cc(F)c(C(F)(F)F)cc2N2CN1c1ccc(=O)[nH]c1NCCOCc1cc(F)ccc12 [Example 129, 2^6,3^4-Difluoro-2^7-(trifluoromethyl)-1^1,1^2,2^1,2^2,2^3,2^4-hexahydro-5-oxa-8-aza-2(3,1)-quinazolina-1(5,6)-pyridina-3(1,2)-benzenacyclooctaphane-1^2,2^4-dione]

Nav1.8, pIC50 [1]: 7.3
Compound: Cl.O=C1c2cc(F)c(F)cc2N2CN1c1ccc(=O)[nH]c1CCNCc1c2ccc(Cl)c1F [Example 74, 8-Chloro-2,3,9-trifluoro-10,11,12,13-tetrahydro-19H-5,18-methanodibenzo-[c,f]pyrido[3,2-j][1,5,9]triazacyclotridecine-15,19(14H)-dione hydrochloride]

Compound: COc1ccc2c(n1)NCCOCc1cc(F)ccc1N1CN2C(=O)c2cc(F)c(C(F)(F)F)cc21
ring closure, isolated yield (from COc1ccc(N2CN(c3ccc(F)cc3COCCN)c3cc(C(F)(F)F)c(F)cc3C2=O)c(Br)n1, cn_pd bond, 12-membered ring, Pd2(dba)3/BINAP/NaOtBu, toluene, 46.4 mM, 100.0 °C, 4.0 h): 37%

Nav1.8, pIC50 [1]: 6.9
Compound: CN1CCCCc2cc(F)ccc2N2CN(C(=O)c3ccc(C(F)(F)F)cc32)c2cc(I)c(=O)[nH]c21 [Example 14, 3^4-Fluoro-1^3-iodo-8-methyl-2^7-(trifluoromethyl)-1^1, 1^2,2^1,2^2,2^3,2^4-hexahydro-8-aza-2(3,1)-quinazolina-1(5,6)-pyridina-3(1,2)-benzenacyclooctaphan-1^2,2^4-dione]
